# Test results published in ChEMBL document CHEMBL3885861, “Open TG-GATES”.
# Species: Rattus norvegicus
# Experiment: Open TG-GATES - Regimen: Daily Repeat
# Format: toxicity, organism-based, Sprague-Dawley
# Design: regimen Daily Repeat, gender Male, age 6 weeks
# Details: in vivo, po, 30 mg/kg, route gavage, dose level Middle; for APTT / Bas / Eos / Fbg / Hb / Ht / Lym / MCH / MCHC / MCV / Mono / Neu / PT / Plat / RBC / Ret / WBC: tissue Blood
# [1] = 72 h, tissue Kidney, time 3 day
# [2] = 72 h, tissue Plasma, time 3 day
structure (smiles),measurement,setting,value
OCCOCCN1CCN(C(c2ccccc2)c2ccc(Cl)cc2)CC1 (stereo unspecified) [HYDROXYZINE],TERMINAL_BW,"72 h, time 3 day",226.2 g
same,APTT,"72 h, time 3 day",15.8 s
same,Bas,"72 h, time 3 day",0%
same,Eos,"72 h, time 3 day",1%
same,Fbg,"72 h, time 3 day",261.2 mg/dL
same,Hb,"72 h, time 3 day",13.3 g/dL
same,Ht,"72 h, time 3 day",40%
same,Lym,"72 h, time 3 day",77.6%
same,MCH,"72 h, time 3 day",21.9 pg
same,MCHC,"72 h, time 3 day",33.3%
same,MCV,"72 h, time 3 day",65.7 fL
same,Mono,"72 h, time 3 day",3%
same,Neu,"72 h, time 3 day",17.8%
same,PT,"72 h, time 3 day",15.3 s
same,Plat,"72 h, time 3 day",120.2 x10_4/uL
same,RBC,"72 h, time 3 day",609.6 x10_4/ul
same,Ret,"72 h, time 3 day",6.9%
same,WBC,"72 h, time 3 day",89.6 x10_2/uL
same,KIDNEY_L,[1],1 g
same,KIDNEY_R,[1],1 g
same,KIDNEY_TOTAL,[1],2 g
same,LIVER,"72 h, tissue Liver, time 3 day",10.9 g
same,A/G,[2],0.9
same,ALP,[2],1463.8 IU/L
same,ALT,[2],40.4 IU/L
same,AST,[2],66.6 IU/L
same,BUN,[2],16.8 mg/dL
same,CRE,[2],0.2 mg/dL
same,Ca,[2],11.1 mg/dL
same,Cl,[2],104.8 meq/L
same,DBIL,[2],0.012 mg/dL
same,GLC,[2],186 mg/dL
same,IP,[2],7.9 mg/dL
same,K,[2],4 meq/L
same,LDH,[2],72.6 IU/L
same,Na,[2],143.6 meq/L
same,PL,[2],158.6 mg/dL
same,RALB,[2],2.6 g/dL
same,TBIL,[2],0.05 mg/dL
same,TC,[2],83 mg/dL
same,TG,[2],100.8 mg/dL
same,TP,[2],5.6 g/dL
same,gamma-GTP,[2],0.8 IU/L
same,TERMINAL_BW,"[…], time 7 day",271.6 g
same,TERMINAL_BW,"[…], time 14 day",331.8 g
same,TERMINAL_BW,"[…], time 28 day",390.1 g
same,APTT,"[…], time 7 day",17 s
same,Bas,"[…], time 7 day",0.2%
same,Eos,"[…], time 7 day",0.6%
same,Fbg,"[…], time 7 day",265.6 mg/dL
same,Hb,"[…], time 7 day",13.6 g/dL
same,Ht,"[…], time 7 day",40.6%
same,Lym,"[…], time 7 day",81.8%
same,MCH,"[…], time 7 day",21.5 pg
same,MCHC,"[…], time 7 day",33.6%
same,MCV,"[…], time 7 day",63.9 fL
same,Mono,"[…], time 7 day",2.2%
same,Neu,"[…], time 7 day",14.4%
same,PT,"[…], time 7 day",15.6 s
same,Plat,"[…], time 7 day",107.6 x10_4/uL
same,RBC,"[…], time 7 day",636 x10_4/ul
same,Ret,"[…], time 7 day",6.5%
same,WBC,"[…], time 7 day",91.6 x10_2/uL
same,APTT,"[…], time 14 day",16.5 s
same,Bas,"[…], time 14 day",0%
same,Eos,"[…], time 14 day",0.8%
same,Fbg,"[…], time 14 day",262.8 mg/dL
same,Hb,"[…], time 14 day",14.2 g/dL
same,Ht,"[…], time 14 day",41.5%
same,Lym,"[…], time 14 day",81.4%
same,MCH,"[…], time 14 day",20.7 pg
same,MCHC,"[…], time 14 day",34.2%
same,MCV,"[…], time 14 day",60.7 fL
same,Mono,"[…], time 14 day",3%
same,Neu,"[…], time 14 day",14.2%
same,PT,"[…], time 14 day",15.6 s
same,Plat,"[…], time 14 day",116.6 x10_4/uL
same,RBC,"[…], time 14 day",683.8 x10_4/ul
same,Ret,"[…], time 14 day",4.5%
same,WBC,"[…], time 14 day",103.2 x10_2/uL
same,APTT,"[…], time 28 day",17.6 s
same,Bas,"[…], time 28 day",0.4%
same,Eos,"[…], time 28 day",1.6%
same,Fbg,"[…], time 28 day",274.4 mg/dL
same,Hb,"[…], time 28 day",15.8 g/dL
same,Ht,"[…], time 28 day",45.6%
